Earlier results, collected in US20230330076A1, “CONTROLLED RELEASE FORMULATIONS OF FLAVOXATE AND PROCESS FOR PREPARATION THEREOF” (priority 2021, published 2023).
Read-outs that look alike come from different tables or passages of the source.

How the values were obtained:
[1] = tested on: α- and β-noradrenergic, muscarinic, serotoninergic and opiate receptors, and calcium binding sites; settings: rat brain tissue
[2] = not given; remark: listed apart in the source

Row | Molecule | binding activity on receptors [1] | T½ (IV dose equimolar to 100 mg) | apparent volume of distribution (IV dose equimolar to 100 mg) | dose excreted as MFCA (IV dose equimolar to 100 mg, urine) | time of peak level of MFCA ([2]; single oral 200 mg dose) | time of peak level of MFCA ([2]; single oral 400 mg dose) | AUC for the 400 mg dose relative to the 200 mg dose ([2]; single oral dosing) | dose excreted as MFCA ([2]; single oral dosing, within 12 hours) | apparent volume of distribution (in vivo, iv, 100 mg)
1 | Cc1c(-c2ccccc2)oc2c(C(=O)OCCN3CCCCC3)cccc2c1=O.Cl [Flavoxate hydrochloride, 2-piperidinoethyl 3-methylflavone-8-carboxylate hydrochloride] | only weak binding activity | 83.3 min | 2.89 L/kg | 47% | 30 to 60 min | around two hours | approximately twice as large | About 50% | 
2 | 3-methylflavone carboxylic acid [MFCA] |  |  |  |  |  |  |  |  | 0.20 L/kg
